Measured values reported in publication PMC2363760, “A novel doxorubicin-glucuronide prodrug DOX-GA3 for tumour-selective chemotherapy: distribution and efficacy in experimental human ovarian cancer” (British Journal of Cancer, 2001).
Like-named read-outs stand apart in the source and are kept apart here.

How the values were obtained:
[1] = Stability of DOX-GA3 in stored control tissue homogenates and serum samples; format: in vitro ADME; details: up to 1 mM, up to 4 weeks at -20C (data not shown)
[2] = Maximum tolerated dose in OVCAR-3-bearing nude mice
[3] = system: OVCAR-3 xenografts; details: for Weight loss / TD14 (tumour volume doubling time from a relative volume of 1 to 4) / Weight day 14: DOX 8 or DOX-GA3 500 mg kg-1 i.v. days 0,7; for GI % (maximum growth inhibition): DOX 8 or DOX-GA3 500 mg kg-1 i.v. weekly x 2
[4] = molecular target: T1, human β-glucuronidase (Homo sapiens, UniProt P08236); details: pH 6.8, 37C, enzyme 1 g ml-1, 30 min, direct linear plots
T1 sequence (P08236 23-651): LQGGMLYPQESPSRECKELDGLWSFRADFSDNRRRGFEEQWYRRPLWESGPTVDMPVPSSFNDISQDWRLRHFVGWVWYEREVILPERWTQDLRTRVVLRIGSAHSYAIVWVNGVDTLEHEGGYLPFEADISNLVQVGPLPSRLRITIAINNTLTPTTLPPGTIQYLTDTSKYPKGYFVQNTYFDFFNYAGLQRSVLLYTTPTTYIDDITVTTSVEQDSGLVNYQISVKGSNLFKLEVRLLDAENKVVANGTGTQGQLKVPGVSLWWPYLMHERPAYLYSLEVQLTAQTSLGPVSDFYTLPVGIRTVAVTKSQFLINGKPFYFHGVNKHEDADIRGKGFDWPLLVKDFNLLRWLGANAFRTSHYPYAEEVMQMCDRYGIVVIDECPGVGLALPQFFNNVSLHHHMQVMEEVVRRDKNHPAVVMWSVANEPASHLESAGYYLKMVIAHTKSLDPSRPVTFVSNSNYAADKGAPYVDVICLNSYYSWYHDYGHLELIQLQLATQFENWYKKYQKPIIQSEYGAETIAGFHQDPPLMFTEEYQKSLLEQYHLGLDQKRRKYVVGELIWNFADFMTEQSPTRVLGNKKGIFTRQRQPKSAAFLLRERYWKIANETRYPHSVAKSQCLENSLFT

[5] = In vivo stability of the prodrug in non-tumour bearing mice; details: DOX-GA3 250 mg kg-1, t = 30 min
[6] = system: OVCAR-3 cells; experiment: In vitro antiproliferative effects in OVCAR-3 cells (sulforhodamine B, 72 h); format: cell-based, human; details: for IC50: 72 h
[7] = system: β-glucuronidase; experiment: Inhibition of β-glucuronidase activity by saccharolactone in samples; format: biochemical; details: 1 mM (data not shown)
[8] = system: β-glucuronidase; details: ref Tomino and Paigen, 1975; cited from earlier work
[9] = DOX-GA3 250 mg kg-1 vs DOX 8 mg kg-1
[10] = after DOX 8 mg kg-1 or DOX-GA3 250 mg kg-1 i.v.

COc1cccc2c1C(=O)c1c(O)c3c(c(O)c1C2=O)C[C@@](O)(C(=O)CO)C[C@@H]3O[C@H]1C[C@H](NC(=O)OCc2ccc(NC(=O)O[C@@H]3O[C@H](C(=O)O)[C@@H](O)[C@H](O)[C@H]3O)cc2)[C@H](O)[C@H](C)O1 [DOX-GA3, N -[4-doxorubicin-N -carbonyl (oxymethyl)phenyl] O -β-glucuronyl carbamate]
activation to doxorubicin on storage [1]: less than 0.1% | maximum weight loss at MTD ([2]; 500 mg kg-1 i.v. weekly x 2): approximately 10% | toxic deaths at MTD ([2]; 500 mg kg-1 i.v. weekly x 2): No toxic deaths occurred | molar amount that could be administered at an equitoxic dose, compared with parent drug ([2]; DOX-GA3 500 mg kg-1 x 2 vs DOX 8 mg kg-1 x 2): 38 fold | MTD ([2]; i.v. weekly x 2, OVCAR-3-bearing mice): 500 mg/kg | specific growth delay (SGD) ([3]; larger tumours (mean 400 mm3), 500 mg kg-1 i.v. weekly x 2): 3.9 | Weight loss ([3]; larger tumours (mean 400 mm3)): 9.6% | GI % (maximum growth inhibition) ([3]; larger tumours (mean 400 mm3)): 88% | TD14 (tumour volume doubling time from a relative volume of 1 to 4) ([3]; larger tumours): 75.1 days | Weight day 14 ([3]; larger tumours): 91.9% | Weight loss ([3]; small tumours (mean 125 mm3)): 5.1% | GI % (maximum growth inhibition) ([3]; small tumours (mean 125 mm3)): 87% | TD14 (tumour volume doubling time from a relative volume of 1 to 4) ([3]; small tumours): 32.4 days | Weight day 14 ([3]; small tumours): 99.0% | Km [4]: 1100 µM | Vmax [4]: 25.0 μmol min^–1mg^–1 | drug/prodrug ratio in plasma [5]: 0.001 | tumour AUC of DOX, fold higher after DOX-GA3 than after DOX (DOX at MTD, prodrug at half of MTD): 10 fold | times lower peak plasma concentration of DOX than after DOX (DOX-GA3 250 mg kg-1 i.v. vs DOX 8 mg kg-1 i.v.): 7.6 times | prodrug peak concentration in plasma (DOX-GA3 250 mg kg-1 i.v., t = 1 min): 1370 nmol/mL | peak of DOX-GA3 in OVCAR-3 tumour tissue (DOX-GA3 250 mg kg-1 i.v., t = 30 min): 44.0 nmol/g | fold higher DOX peak concentration in tumour than after DOX [9]: ~5 fold | fold lower peak DOX concentration in normal tissues (heart) than after DOX [9]: up to 5 fold | DOX peak concentration in OVCAR-3 tumour tissue (after DOX 8 mg kg-1 (t = 1 min) or DOX-GA3 250 mg kg-1 (t = 2 h) i.v.): 9.57 nmol/g | DOX peak concentration in heart [10]: 3.27 nmol/g | DOX peak concentration in kidney [10]: 70.8 nmol/g | DOX peak concentration in liver [10]: 14.2 nmol/g | DOX peak concentration in plasma [10]: 2.17 nmol/mL | drug targeting index (DTI), heart tissue (tumour vs heart): 31.4 | drug targeting index (DTI), plasma (tumour vs plasma (surrogate for bone marrow)): 81.4 | ratio of drug/prodrug in plasma (tumour-bearing animals, DOX-GA3 250 mg kg-1): 0.002 | times less capable of inhibiting cell growth than DOX [6]: more than 100 times | IC50 [6]: 22 µM

O.O=C(O)[C@@H](O)[C@H]1OC(=O)[C@H](O)[C@H]1O [Saccharolactone, D-glucaric acid-1,4-lactone monohydrate]
activity of the enzyme abolished [7]: > 99%

COc1cccc2c1C(=O)c1c(O)c3c(c(O)c1C2=O)C[C@@](O)(C(=O)CO)C[C@@H]3O[C@H]1C[C@H](N)[C@H](O)[C@H](C)O1 [DOX, Doxorubicin]
GI % (maximum growth inhibition) ([3]; larger tumours (mean 400 mm3)): 52% | TD14 (tumour volume doubling time from a relative volume of 1 to 4) ([3]; larger tumours): 21.5 days | GI % (maximum growth inhibition) ([3]; small tumours (mean 125 mm3)): 56% | TD14 (tumour volume doubling time from a relative volume of 1 to 4) ([3]; small tumours): 11.5 days | heart AUC of DOX, fold higher after DOX than after prodrug (nude, mouse, in vivo): 3.1 fold | kidney AUC of DOX, times lower after DOX than after prodrug (nude, mouse, in vivo): 2.0 times | liver AUC of DOX, fold higher after DOX than after prodrug (nude, mouse, in vivo): 1.8 fold | IC50 ([6]; Homo sapiens): 0.12 µM

O=C(O)[C@H]1O[C@@H](Oc2ccc([N+](=O)[O-])cc2)[C@H](O)[C@@H](O)[C@@H]1O [4-nitrophenyl-glucuronide]
Km [8]: 1300 µM
